From patent US12539292B2, “BRM targeting compounds and associated methods of use” (Arvinas Operations, Inc., priority 2018, dated 2026)
Where two headings read alike, the source gives them in different places.

Molecular target: T1, BRM (Homo sapiens, UniProt P51531)
T1 construct: In-Cell Western Screen of BRM Degradation in SW1573 Cells; endogenous in cells; host or cells: SW1573
Assay: In-cell Western screen of BRM degradation in SW1573 cells (Dmax and DC50)
Assay type: cell-based
Outline: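 After adhering overnight, cells received compound for 18-20 hours. They were then washed in cold DPBS, fixed with 4% PFA for 20 min and permeabilized for 30 min. Blocking and fluorescent secondary staining followed before imaging.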

[1] = BRM degradation, SW1573 cells, read-out: DC50
[2] = BRM degradation, SW1573 cells, read-out: Dmax (% degraded)
[3] = target protein degradation, read-out: BRM DC50
[4] = BRM degradation, read-out: BRM DC50
[5] = SW1573, % degraded, when tested at the top concentration of between 0.3 and 10 μM, read-out: BRM Dmax (%)

T1 sequence (P51531 whole entry): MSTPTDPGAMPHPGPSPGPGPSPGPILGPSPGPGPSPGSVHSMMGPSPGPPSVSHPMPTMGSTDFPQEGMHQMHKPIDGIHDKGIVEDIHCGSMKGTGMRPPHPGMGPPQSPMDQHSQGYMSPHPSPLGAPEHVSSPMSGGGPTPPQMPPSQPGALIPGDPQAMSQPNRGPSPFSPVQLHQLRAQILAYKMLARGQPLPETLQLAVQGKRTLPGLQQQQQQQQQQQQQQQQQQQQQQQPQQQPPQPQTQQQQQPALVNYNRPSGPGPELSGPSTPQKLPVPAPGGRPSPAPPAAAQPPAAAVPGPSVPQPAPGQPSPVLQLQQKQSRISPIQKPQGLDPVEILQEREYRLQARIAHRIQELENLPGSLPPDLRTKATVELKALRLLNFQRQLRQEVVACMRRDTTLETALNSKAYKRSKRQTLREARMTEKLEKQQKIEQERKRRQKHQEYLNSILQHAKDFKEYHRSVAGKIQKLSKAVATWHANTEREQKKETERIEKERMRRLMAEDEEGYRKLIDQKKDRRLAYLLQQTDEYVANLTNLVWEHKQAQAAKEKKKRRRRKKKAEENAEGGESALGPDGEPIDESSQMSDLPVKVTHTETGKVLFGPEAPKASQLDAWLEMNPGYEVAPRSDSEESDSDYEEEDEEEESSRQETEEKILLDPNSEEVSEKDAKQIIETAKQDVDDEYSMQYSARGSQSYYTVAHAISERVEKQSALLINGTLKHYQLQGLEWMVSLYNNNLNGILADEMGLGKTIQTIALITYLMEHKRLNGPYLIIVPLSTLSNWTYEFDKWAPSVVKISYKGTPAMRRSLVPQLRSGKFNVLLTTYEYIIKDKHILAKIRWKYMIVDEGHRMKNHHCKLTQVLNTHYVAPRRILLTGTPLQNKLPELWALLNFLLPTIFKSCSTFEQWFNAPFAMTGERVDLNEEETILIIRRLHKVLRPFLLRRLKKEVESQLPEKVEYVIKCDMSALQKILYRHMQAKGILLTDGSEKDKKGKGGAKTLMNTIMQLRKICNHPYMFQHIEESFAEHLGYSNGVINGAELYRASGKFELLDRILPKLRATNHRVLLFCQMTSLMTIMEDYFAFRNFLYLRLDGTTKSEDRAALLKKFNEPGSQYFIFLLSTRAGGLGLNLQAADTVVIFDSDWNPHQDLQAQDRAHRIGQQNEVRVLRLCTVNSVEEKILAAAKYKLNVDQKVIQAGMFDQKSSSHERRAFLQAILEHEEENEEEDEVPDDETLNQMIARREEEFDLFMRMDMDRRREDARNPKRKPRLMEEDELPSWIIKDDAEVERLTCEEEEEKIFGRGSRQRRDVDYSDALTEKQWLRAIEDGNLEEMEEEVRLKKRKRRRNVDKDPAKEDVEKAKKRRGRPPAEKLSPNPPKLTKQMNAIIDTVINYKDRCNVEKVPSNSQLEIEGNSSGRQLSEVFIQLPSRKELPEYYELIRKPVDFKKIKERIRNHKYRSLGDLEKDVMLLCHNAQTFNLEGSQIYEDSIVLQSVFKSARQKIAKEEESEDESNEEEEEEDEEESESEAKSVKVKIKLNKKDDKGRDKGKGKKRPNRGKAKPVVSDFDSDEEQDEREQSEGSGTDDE

Cc1ncsc1-c1ccc([C@H](C)NC(=O)[C@@H]2C[C@@H](O)CN2C(=O)[C@@H](c2cc(OCCN3CCC(CN4CC(Oc5cc(N6C7CCC6CN(c6cc(-c8ccccc8O)nnc6N)C7)ccn5)C4)CC3)no2)C(C)C)cc1 [compound 406, (2S,4R)-1-((2R)-2-(3-(2-(4-((3-((4-(3-(3-amino-6-(2-hydroxyphenyl)pyridazin-4-yl)-3,8-diazabicyclo[3.2.1]octan-8-yl)pyridin-2-yl)oxy)azetidin-1-yl)methyl)piperidin-1-yl)ethoxy)isoxazol-5-yl)-3-methylbutanoyl)-4-hydroxy-N-((S)-1-(4-(4-methylthiazol-5-yl)phenyl)ethyl)pyrrolidine-2-carboxamide]
DC50 (degradation of BRM, read-out: BRM DC50): > 30 nM

Cc1ncsc1-c1ccc([C@H](C)NC(=O)[C@@H]2C[C@@H](O)CN2C(=O)[C@H](c2cc(N3CCC(C#CCN4CCC(Oc5cc(N6C7CCC6CN(c6cc(-c8ccccc8O)nnc6N)C7)ccn5)CC4)CC3)no2)C(C)C)cc1 [compound 676, (2S,4R)-1-((2S)-2-(3-(4-(3-(4-((4-(3-(3-amino-6-(2-hydroxyphenyl)pyridazin-4-yl)-3,8-diazabicyclo[3.2.1]octan-8-yl)pyridin-2-yl)oxy)piperidin-1-yl)prop-1-yn-1-yl)piperidin-1-yl)isoxazol-5-yl)-3-methylbutanoyl)-4-hydroxy-N-((S)-1-(4-(4-methylthiazol-5-yl)phenyl)ethyl)pyrrolidine-2-carboxamide]
DC50 [1]: 2.5 to 10 nM
Dmax [2]: > 75%

Cc1cc([C@H](C(=O)N2C[C@H](O)C[C@H]2C(=O)N[C@@H](C)c2ccc(-c3scnc3C)cc2)[C@@H](C)CO[C@H]2C[C@@H](Oc3cc(N4C5CCC4CN(c4cc(-c6ccccc6O)nnc4N)C5)ccn3)C2)on1 [compound 482, (2S,4R)-1-((2R,3R)-4-((1s,3S)-3-((4-(3-(3-amino-6-(2-hydroxyphenyl)pyridazin-4-yl)-3,8-diazabicyclo[3.2.1]octan-8-yl)pyridin-2-yl)oxy)cyclobutoxy)-3-methyl-2-(3-methylisoxazol-5-yl)butanoyl)-4-hydroxy-N-((S)-1-(4-(4-methylthiazol-5-yl)phenyl)ethyl)pyrrolidine-2-carboxamide]
DC50 [3]: > 30 nM

Cc1ncsc1-c1ccc([C@H](C)NC(=O)[C@@H]2C[C@@H](O)CN2C(=O)[C@@H](c2cc(N3CCC4(CCN(C[C@H]5C[C@H](Oc6cc(N7C8CCC7CN(c7cc(-c9ccccc9O)nnc7N)C8)ccn6)C5)CC4)CC3)no2)C(C)C)cc1 [compound 646, (2S,4R)-1-((2R)-2-(3-(9-(((1r,3R)-3-((4-(3-(3-amino-6-(2-hydroxyphenyl)pyridazin-4-yl)-3,8-diazabicyclo[3.2.1]octan-8-yl)pyridin-2-yl)oxy)cyclobutyl)methyl)-3,9-diazaspiro[5.5]undecan-3-yl)isoxazol-5-yl)-3-methylbutanoyl)-4-hydroxy-N-((S)-1-(4-(4-methylthiazol-5-yl)phenyl)ethyl)pyrrolidine-2-carboxamide]
DC50 [1]: < 2.5 nM
Dmax [2]: > 75%

Cc1ncsc1-c1ccc([C@H](CO)NC(=O)[C@@H]2C[C@@H](O)CN2C(=O)[C@@H](c2cc(N3CCC(CN4CCC(O[C@H]5C[C@H](Oc6cc(N7C8CCC7CN(c7cc(-c9ccccc9O)nnc7N)C8)ccn6)C5)CC4)CC3)no2)C(C)C)cc1 [compound 653, (2S,4R)-1-((2R)-2-(3-(4-((4-((1r,3r)-3-((4-(3-(3-amino-6-(2-hydroxyphenyl)pyridazin-4-yl)-3,8-diazabicyclo[3.2.1]octan-8-yl)pyridin-2-yl)oxy)cyclobutoxy)piperidin-1-yl)methyl)piperidin-1-yl)isoxazol-5-yl)-3-methylbutanoyl)-4-hydroxy-N-((R)-2-hydroxy-1-(4-(4-methylthiazol-5-yl)phenyl)ethyl)pyrrolidine-2-carboxamide]
DC50 [1]: < 2.5 nM
Dmax [2]: > 75%

CC(C)[C@@H](C(=O)N1C[C@H](O)C[C@H]1C(=O)N[C@@H](C)c1ccc(-n2ccccc2=O)cc1)c1cc(OCCN2CCC(O[C@H]3C[C@H](Oc4cc(N5C6CCC5CN(c5cc(-c7ccccc7O)nnc5N)C6)ccn4)C3)CC2)no1 [compound 373, (2S,4R)-1-((2R)-2-(3-(2-(4-((1r,3R)-3-((4-(3-(3-amino-6-(2-hydroxyphenyl)pyridazin-4-yl)-3,8-diazabicyclo[3.2.1]octan-8-yl)pyridin-2-yl)oxy)cyclobutoxy)piperidin-1-yl)ethoxy)isoxazol-5-yl)-3-methylbutanoyl)-4-hydroxy-N-((S)-1-(4-(2-oxopyridin-1(2H)-yl)phenyl)ethyl)pyrrolidine-2-carboxamide]
DC50 [3]: > 30 nM

Cc1cc([C@@H](C(=O)N2C[C@H](O)C[C@H]2C(=O)N[C@@H](C)c2ccc(-c3scnc3C)cc2)[C@@H](C)COCCCOc2cc(N3C4CCC3CN(c3cc(-c5ccccc5O)nnc3N)C4)ccn2)on1 [compound 494, (2S,4R)-1-((2S,3R)-4-(3-((4-(3-(3-amino-6-(2-hydroxyphenyl)pyridazin-4-yl)-3,8-diazabicyclo[3.2.1]octan-8-yl)pyridin-2-yl)oxy)propoxy)-3-methyl-2-(3-methylisoxazol-5-yl)butanoyl)-4-hydroxy-N-((S)-1-(4-(4-methylthiazol-5-yl)phenyl)ethyl)pyrrolidine-2-carboxamide]
DC50 [4]: < 2.5 nM
Dmax [5]: > 75%

Cc1ncsc1-c1ccc([C@H](C)NC(=O)[C@@H]2C[C@@H](O)CN2C(=O)[C@H](c2cc(OCCN3CCN(CCCCN4CCOC5(CCN(c6cc(-c7ccccc7O)nnc6N)CC5)C4)CC3)no2)C(C)C)cc1 [compound 205, (2S,4R)-1-((S)-2-(3-(2-(4-(4-(9-(3-amino-6-(2-hydroxyphenyl)pyridazin-4-yl)-1-oxa-4,9-diazaspiro[5.5]undecan-4-yl)butyl)piperazin-1-yl)ethoxy)isoxazol-5-yl)-3-methylbutanoyl)-4-hydroxy-N-((S)-1-(4-(4-methylthiazol-5-yl)phenyl)ethyl)pyrrolidine-2-carboxamide]
DC50 [1]: > 30 nM
Dmax (BRM degradation, SW1573 cells, tested at the top concentration of between 0.3 and 10 μM, read-out: Dmax (%) (% degraded)): > 75%

Cc1ncsc1-c1ccc([C@H](C)NC(=O)[C@@H]2C[C@@H](O)CN2C(=O)C(c2cc(N3CCC(CN4CCC(O[C@H]5C[C@H](CN6CCOC7(CCN(c8cc(-c9ccccc9O)nnc8N)CC7)C6)C5)CC4)CC3)no2)C(C)C)cc1 (stereo partly drawn) [compound 610, (2S,4R)-1-((R)-2-(3-(4-((4-((1r,3r)-3-((9-(3-amino-6-(2-hydroxyphenyl)pyridazin-4-yl)-1-oxa-4,9-diazaspiro[5.5]undecan-4-yl)methyl)cyclobutoxy)piperidin-1-yl)methyl)piperidin-1-yl)isoxazol-5-yl)-3-methylbutanoyl)-4-hydroxy-N-((S)-1-(4-(4-methylthiazol-5-yl)phenyl)ethyl)pyrrolidine-2-carboxamide]
Dmax (BRM degradation, SW1573 cells, Table 2D, read-out: **Dmax (%) (% degraded)): > 75%
DC50 (BRM degradation, SW1573 cells, Table 2D, read-out: *DC50): < 2.5 nM

Cc1ncsc1-c1ccc([C@H](C)NC(=O)[C@@H]2C[C@@H](OP(=O)(O)O)CN2C(=O)[C@@H](c2cc(OCCN3CCC(O[C@H]4C[C@H](Oc5cc(N6C7CCC6CN(c6cc(-c8ccccc8O)nnc6N)C7)ccn5)C4)CC3)no2)C(C)C)cc1 [compound 459, (3R,5S)-1-((2R)-2-(3-(2-(4-((1r,3R)-3-((4-(3-(3-amino-6-(2-hydroxyphenyl)pyridazin-4-yl)-3,8-diazabicyclo[3.2.1]octan-8-yl)pyridin-2-yl)oxy)cyclobutoxy)piperidin-1-yl)ethoxy)isoxazol-5-yl)-3-methylbutanoyl)-5-(((S)-1-(4-(4-methylthiazol-5-yl)phenyl)ethyl)carbamoyl)pyrrolidin-3-yl dihydrogen phosphate]
Dmax [5]: > 75%
DC50 [3]: < 2.5 nM

Cc1ncsc1-c1ccc([C@H](C)NC(=O)[C@@H]2C[C@@H](O)CN2C(=O)[C@H](c2cc(N3CC(CN4CC(COc5cc(N6C7CCC6CN(c6cc(-c8ccccc8O)nnc6N)C7)ccn5)C4)C3)no2)C(C)C)cc1 [compound 518, (2S,4R)-1-((2S)-2-(3-(3-((3-(((4-(3-(3-amino-6-(2-hydroxyphenyl)pyridazin-4-yl)-3,8-diazabicyclo[3.2.1]octan-8-yl)pyridin-2-yl)oxy)methyl)azetidin-1-yl)methyl)azetidin-1-yl)isoxazol-5-yl)-3-methylbutanoyl)-4-hydroxy-N-((S)-1-(4-(4-methylthiazol-5-yl)phenyl)ethyl)pyrrolidine-2-carboxamide]
DC50 [4]: > 30 nM

Cc1ncsc1-c1ccc([C@@H](COCC(C)C)NC(=O)[C@@H]2C[C@@H](O)CN2C(=O)[C@H](c2cc(OCCN3CCN(CCOc4cc(N5C6CCC5CN(c5cc(-c7ccccc7O)nnc5N)C6)ccn4)CC3)no2)C(C)C)cc1 [compound 297]
DC50 [1]: > 30 nM

Cc1ncsc1-c1c(F)cc([C@H](C)NC(=O)[C@@H]2C[C@@H](O)CN2C(=O)[C@@H](c2cc(N3CCC(CN4CCC(O[C@H]5C[C@H](Oc6cc(N7C8CCC7CN(c7cc(-c9ccccc9O)nnc7N)C8)ccn6)C5)CC4)CC3)no2)C(C)C)cc1F [compound 666, (2S,4R)-1-((2R)-2-(3-(4-((4-((1r,3r)-3-((4-(3-(3-amino-6-(2-hydroxyphenyl)pyridazin-4-yl)-3,8-diazabicyclo[3.2.1]octan-8-yl)pyridin-2-yl)oxy)cyclobutoxy)piperidin-1-yl)methyl)piperidin-1-yl)isoxazol-5-y1)-3-methylbutanoyl)-N-((S)-1-(3,5-difluoro-4-(4-methylthiazol-5-yl)phenyl)ethyl)-4-hydroxypyrrolidine-2-carboxamide]
DC50 [1]: < 2.5 nM
Dmax [2]: > 75%
